Test results: PMC2889835 (PLoS ONE, 2010)
Entries after “also recorded” stand apart in the source; their conditions may differ. Where two headings read alike, the source gives them in different places. Starred links: 1 amine or outer side, 2 acyl side, 3 side chain; linkers in the order of their positions; H or OH if unused. Positions of bridges follow the written chain, without caps; N, C: chain ends. Non-standard residues stand in square brackets, D forms with d. Residues, ends and D or L forms follow the SMILES beside them. Chains are numbered I, II in the order given. Actinocin(9to1) = Cc1c2oc3c(C)ccc(C(=O)[*:1])c3nc-2c(C(=O)[*:2])c(N)c1=O; NMeV = CN[C@H](C(=O)O)C(C)C; Sar = CNCC(=O)O

How the values were obtained:
[1] = test system: VSV-GFP; assay: microbe, parasite or virus in culture; assay type: cell-based; details: Vesicular stomatitis virus; for IC50: read-out: IC50 VSV-GFP; for IC90: read-out: IC90 VSV-GFP
[2] = test system: SeV-GFP; assay: microbe, parasite or virus in culture; assay type: cell-based, Sendai virus; details: Respirovirus muris; for IC50: read-out: IC50 SeV-GFP; for IC90: read-out: IC90 SeV-GFP
[3] = test system: VSV-GFP; assay type: cell-based, vesicular stomatitis virus
[4] = test system: SeV-GFP; assay type: cell-based, Sendai virus
[5] = test system: BHK21, BSRT7, HeLa, A549, 4T1, HEp2 and Vero cells
[6] = test system: canine distemper virus; details: Vero cells; cited from earlier work
[7] = test system: BHK21, BSRT7, HeLa, A549, 4T1, HEp2 and Vero cells; assay: Cell viability assays (MTT, CellTiter-Glo, trypan blue dye exclusion); details: RBV up to 1000 µM, 24 h, all seven cell lines
[8] = test system: VSV-GFP or SeV-GFP; assay type: cell-based, vesicular stomatitis virus; Sendai virus
[9] = test system: Vero, HepG2, MDCK and other cell lines; details: cited from earlier work
[10] = test system: RBV uptake; assay type: cell-based
[11] = test system: VSV-GFP or SeV-GFP; assay type: cell-based, vesicular stomatitis virus; Sendai virus; remark: listed apart in the source

NC(=O)c1ncn([C@@H]2O[C@H](CO)[C@@H](O)[C@H]2O)n1 [RBV, 1-ß-D-ribofuranosyl-1,2,4-triazole-3-carboxamide]
IC50 ([1]; 4T1, 24 h): 20 µM | IC90 ([1]; 4T1, 24 h): 60 µM | IC50 ([1]; A549, 24 h): 190 µM | IC90 ([1]; A549, 24 h): 610 µM | IC50 ([1]; BHK-21, 24 h): 275 µM | IC90 ([1]; BHK-21, 24 h): 1100 µM | IC50 ([1]; BSR-T7, 24 h): 10 µM | IC90 ([1]; BSR-T7, 24 h): 40 µM | IC50 ([1]; HEp-2, 24 h): 70 µM | IC90 ([1]; HEp-2, 24 h): 310 µM | IC50 ([1]; HeLa, 24 h): 70 µM | IC90 ([1]; HeLa, 24 h): 150 µM | IC50 ([1]; Vero, 24 h): 2250 µM | IC90 ([1]; Vero, 24 h): > 3000 µM | IC50 ([2]; 4T1, 48 h): 10 µM | IC90 ([2]; 4T1, 48 h): 18 µM | IC50 ([2]; A549, 48 h): 90 µM | IC90 ([2]; A549, 48 h): 320 µM | IC50 ([2]; BHK-21, 48 h): 190 µM | IC90 ([2]; BHK-21, 48 h): 850 µM | IC50 ([2]; BSR-T7, 48 h): 16 µM | IC90 ([2]; BSR-T7, 48 h): 40 µM | IC50 ([2]; HEp-2, 48 h): 12 µM | IC90 ([2]; HEp-2, 48 h): 45 µM | IC50 ([2]; HeLa, 48 h): 40 µM | IC90 ([2]; HeLa, 48 h): 110 µM | IC50 ([2]; Vero, 48 h): 1550 µM | IC90 ([2]; Vero, 48 h): > 3000 µM | Effect on VSV replication (GFP expression) [3]: effectively inhibited VSV | Effect on VSV-driven GFP expression [3]: surprisingly mild effect; also recorded: somewhat intermediate effect | Effect on SeV replication compared with VSV [4]: inhibited SeV replication to a greater degree than VSV | Long-term accumulation of RBV [5]: markedly decreased levels of RBV accumulation | Short-term RBV uptake [5]: somewhat similar levels of RBV import | IC50 [6]: 20 to 50 µM | IC80 [6]: 40 to 110 µM | Effect on cell viability (cellular toxicity) [7]: did not produce any statistically significant decrease in cell viability; also recorded: did not produce any significant cytotoxicity

Nc1nc2c(ncn2[C@@H]2O[C@H](CO)[C@@H](O)[C@H]2O)c(=O)[nH]1 [guanosine]
Effect on virus replication when used alone [8]: no significant effect on virus replication | Neutralizing effect on antiviral activity of RBV [8]: clear (almost 100%) neutralizing effect on RBV | Excess of physiological GTP levels [9]: at least 4 fold

O=[N+]([O-])c1ccc(CSc2ncnc3c2ncn3[C@@H]2O[C@H](CO)[C@@H](O)[C@H]2O)cc1 [NBMPR, S-(4-Nitrobenzyl)-6-thioinosine]
Effect on RBV uptake [10]: RBV uptake was inhibited in most cell lines

Cc1c2oc3c(C)ccc(C(=O)N[C@@H]4C(=O)N[C@H](C(C)C)C(=O)N5CCC[C@H]5C(=O)N(C)CC(=O)N(C)[C@@H](C(C)C)C(=O)O[C@@H]4C)c3nc-2c(C(=O)N[C@@H]2C(=O)N[C@H](C(C)C)C(=O)N3CCC[C@H]3C(=O)N(C)CC(=O)N(C)[C@@H](C(C)C)C(=O)O[C@@H]2C)c(N)c1=O [ActD, actinomycin D] (I: T[dV]P[Sar][NMeV] / II: T[dV]P[Sar][NMeV]; ester I:1-I:C, II:1-II:C; linker I:N-II:N via Actinocin(9to1))
Effect on RBV uptake [10]: did not inhibit RBV uptake | Effect on viral replication when used alone [11]: somewhat mild effect on viral replication | Neutralizing effect on antiviral activity of RBV [11]: clear neutralizing effect on RBV
